Legend:
[1] = system: human monocytes; test: Challenge of human monocytes with food extracts, TNF-α (L929 bioassay) / IL-6 (ELISA) secretion; type: cell-based; details: 25 μg/ml OxPAPC, filter-sterilised food extracts, 4 h
Experimental: Venous blood was collected by venepuncture from consenting healthy human subjects according to the guidelines laid down in the Declaration of Helsinki and all procedures involving human subjects were approved by the University of Leicester College of Medicine Research Ethics Committee. Written informed consent was obtained from all subjects. Peripheral blood mononuclear cells (PBMC) were prepared by density gradient centrifugation at 800 g for 25 min using Histopaque-1077 (Sigma). Recovered cells were washed twice in PBS solution, resuspended in RPMI/10% fetal calf serum (FCS) (Sigma) and plated in 96-well plates at 4×10^5 cells per well. Monocytes were prepared from PBMC by plastic adherence (1 h at 37° C.), followed by gentle washing to remove non-adherent cells. Remaining monocytes were then challenged by adding a 1:20 dilution of each sterile-filtered food extract in tissue culture medium. After incubation at 37° C. for 4 h, supernatants were removed for assay of TNF-α content by L929-cell bioassay as described in Delahooke et al. (1995, Infect. Immun. 63, 840-846), or IL-6 levels were measured by ELISA (R&D) after 18 h.

[2] = biological target: T1, human TLR-2 (Homo sapiens, UniProt O60603); test: TLR-transfection NF-κB reporter (pELAM) assay, HEK-293 cells transfected with TLR-2 and CD14; type: cell-based
T1 construct: host or cells: HEK-293
Experimental: (§1) For transfection assays, human embryonic kidney (HEK)-293 cells were plated in 96 well plates at 10^4 cells per well and transfected after 24 h using Genejuice (Novagen) according to manufacturer's instructions. The following amounts of constructs were added to each well: 30 ng of human TLR-2, TLR-5 or TLR-4 (co-expressing MD-2), 30 ng of pCD14 and 10 ng of NF-κB-sensitive luciferase-reporter construct (pELAM). Cells were grown for 3 days post transfection prior to 18 h challenge. Promoter expression was calculated as fold induction relative to cells cultured in medium alone +/−SD. Endogenous expression of TLRs in HEK-293 has been ruled out by RT-PCR by the inventor.
(§2) Log-transformed PAMP concentrations were then plotted against fold-induction of NF-κB reporter to generate a standard curve. […] For example, results presented as 200 ng/g BLP-equivalent means that each gramme of food contains TLR-2-stimulants with a capacity to stimulate TLR-2-signalling equal to that of 200 ng Pam3CSK4. Food extracts were measured at 1:10 dilution in DMEM/10% FCS in duplicate. If signals exceeded the range of the standard curve, further dilutions were prepared and reassayed.
Samples were then maintained at 100 ° C. for 1 -120 min, before cooling, diluting 1:10 in DMEM/10% FCS and applying to HEK-293 cells transfected with TLR-2 or TLR-4/MD2 for measurement of capacity to induce TLR-signalling as described above. […] Samples were then neutralised by addition of NaOH solution and applied to TLR-transfected HEK-293 cells as described above.
As a negative control, parallel samples were supplemented with an equal molarity of NaCl to account for increased salinity of samples due to acid/base neutralisation. […] Control samples were also heat-treated for 10 minutes.
TLR-stimulants were quantified in both whole heat-treated saliva (100° C. for 10 minutes), intended to reflect total bacteria-associated TLR-stimulants, and in saliva diluted 1:10 in PBS and filter-sterilised (0.22 μm, Acrodisc), intended to reflect soluble TLR-stimulants in human saliva. A recently developed bioassay based upon the measurement of NF-κB-dependent reporter activation in TLR-deficient HEK-293 cells transfected with human TLR2, TLR4/MD2 or TLR5, and callibrated with TLR2-, TLR4- or TLR5-stimulating standards (Erridge et al., 2010, Public Library of Science One 5, e9125), was used to quantify TLR-stimulants in saliva samples. Briefly, cells were plated in 96-well plates at 2×10^4 cells per well and transfected after 24 h using Genejuice (Novagen). Amounts of construct per well were 30 ng of human TLR2, TLR4 (co-expressing MD-2) or TLR5 (Invivogen), 30 ng of CD14 and 10 ng of firefly luciferase-reporter construct driven by the NF-KB dependent E-selectin promoter (pELAM). 3 days after transfection, cells were challenged in triplicate with heat-treated or sterile-filtered saliva samples diluted 1:100 in DMEM/1%FCS. […] After 18 h, NF-κB-dependent reporter expression was measured using Promega Dual-Glo reagent. Fold induction of reporter was calculated relative to cells cultured in medium alone and a standard curve was prepared by plotting fold NF-κB induction vs concentration for each standard PAMP. […] For example, results presented as 200 ng/ml lipopeptide-equivalents indicate that 1 ml of saliva contains TLR2-stimulants with a capacity to stimulate TLR2-signalling equal to that of 200 ng Pam3CSK4. The coefficient of variance of the assay averaged ˜20%. […]

[3] = system: HEK-293 cells transfected with CD14 alone; details: 10 μg/ml, positive control; cited from earlier work
[4] = system: HEK-293 cells transfected with CD14 alone; test: NF-κB reporter in HEK-293 cells transfected with CD14 and reporter alone (no corresponding TLR); type: cell-based, human; details: data not shown
[5] = biological target: T2, human TLR-5 (Homo sapiens, UniProt O60602); test: TLR-transfection NF-κB reporter (pELAM) assay, HEK-293 cells transfected with TLR-5 and CD14; type: cell-based
T2 construct: host or cells: HEK-293
Experimental: as §1, §2
TLR-stimulants were quantified in both whole heat-treated saliva (100° C. for 10 minutes), intended to reflect total bacteria-associated TLR-stimulants, and in saliva diluted 1:10 in PBS and filter-sterilised (0.22 μm, Acrodisc), intended to reflect soluble TLR-stimulants in human saliva. A recently developed bioassay based upon the measurement of NF-κB-dependent reporter activation in TLR-deficient HEK-293 cells transfected with human TLR2, TLR4/MD2 or TLR5, and callibrated with TLR2-, TLR4- or TLR5-stimulating standards (Erridge et al., 2010, Public Library of Science One 5, e9125), was used to quantify TLR-stimulants in saliva samples. […] After 18 h, NF-κB-dependent reporter expression was measured using Promega Dual-Glo reagent. Fold induction of reporter was calculated relative to cells cultured in medium alone and a standard curve was prepared by plotting fold NF-κB induction vs concentration for each standard PAMP. […]

[6] = pH 1.0 with HCl 2 h or 3 h, then neutralised

T1 sequence (O60603 21-784): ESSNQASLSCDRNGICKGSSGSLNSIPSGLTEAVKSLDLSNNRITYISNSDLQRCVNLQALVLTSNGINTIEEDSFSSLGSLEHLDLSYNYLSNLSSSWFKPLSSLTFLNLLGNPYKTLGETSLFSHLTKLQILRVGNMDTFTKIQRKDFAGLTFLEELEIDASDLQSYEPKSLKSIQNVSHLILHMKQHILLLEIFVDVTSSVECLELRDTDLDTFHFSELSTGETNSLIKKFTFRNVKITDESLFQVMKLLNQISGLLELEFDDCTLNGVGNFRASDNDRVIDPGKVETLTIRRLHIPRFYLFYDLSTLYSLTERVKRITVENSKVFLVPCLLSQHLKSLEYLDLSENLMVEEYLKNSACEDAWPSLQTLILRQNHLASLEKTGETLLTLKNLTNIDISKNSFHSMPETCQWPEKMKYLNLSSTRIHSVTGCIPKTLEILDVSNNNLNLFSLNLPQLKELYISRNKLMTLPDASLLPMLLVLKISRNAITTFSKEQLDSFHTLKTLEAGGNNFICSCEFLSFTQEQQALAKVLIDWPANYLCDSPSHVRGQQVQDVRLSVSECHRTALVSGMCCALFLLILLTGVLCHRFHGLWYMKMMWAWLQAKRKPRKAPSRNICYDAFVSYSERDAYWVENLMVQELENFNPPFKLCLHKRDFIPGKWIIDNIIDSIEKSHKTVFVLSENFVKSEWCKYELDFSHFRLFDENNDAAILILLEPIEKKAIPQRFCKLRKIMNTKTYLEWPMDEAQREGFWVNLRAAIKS
T2 sequence (O60602 21-858): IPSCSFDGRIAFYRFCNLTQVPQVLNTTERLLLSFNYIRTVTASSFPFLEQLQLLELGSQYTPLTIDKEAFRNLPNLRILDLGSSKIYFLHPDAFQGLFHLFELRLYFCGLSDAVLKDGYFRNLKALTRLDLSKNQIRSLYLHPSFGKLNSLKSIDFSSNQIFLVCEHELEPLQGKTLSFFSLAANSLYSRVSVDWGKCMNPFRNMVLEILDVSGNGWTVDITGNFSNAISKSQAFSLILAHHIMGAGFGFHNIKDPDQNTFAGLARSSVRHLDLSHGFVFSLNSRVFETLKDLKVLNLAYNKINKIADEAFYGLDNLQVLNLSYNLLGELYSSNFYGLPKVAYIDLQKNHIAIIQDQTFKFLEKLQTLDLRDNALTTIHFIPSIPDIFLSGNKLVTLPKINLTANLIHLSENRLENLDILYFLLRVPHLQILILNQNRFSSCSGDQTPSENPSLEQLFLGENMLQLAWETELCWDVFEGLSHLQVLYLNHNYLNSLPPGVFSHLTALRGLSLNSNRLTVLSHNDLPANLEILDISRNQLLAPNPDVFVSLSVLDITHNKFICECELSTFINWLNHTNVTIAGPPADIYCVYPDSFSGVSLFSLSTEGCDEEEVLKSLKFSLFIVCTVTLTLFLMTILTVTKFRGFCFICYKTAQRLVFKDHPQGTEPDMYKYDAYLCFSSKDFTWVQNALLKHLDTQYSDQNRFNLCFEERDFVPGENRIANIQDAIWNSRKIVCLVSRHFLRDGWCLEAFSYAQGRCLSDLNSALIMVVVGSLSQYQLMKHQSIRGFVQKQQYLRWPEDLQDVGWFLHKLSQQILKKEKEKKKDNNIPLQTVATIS

Molecule: oxidised palmitoyl-arachidonyl phosphocholine [OxPAPC]
- TNF-α secretion in response to each stimulant-containing foodstuff in presence of OxPAPC [1]: completely abrogated
- Inhibition of TLR2-dependent signalling induced by patient saliva samples ([2]; 25 μg/ml OxPAPC, filter-sterilised saliva 1:100, 18 h): significantly blocked

Molecule: polyinosinic acid [PolyI:C]
- NF-κB activation in HEK-293 cells [3]: stimulates NF-κB activation independently of TLR2, TLR4 or TLR5

Molecule: Pam3CSK4
- Biological activity (TLR-2 signalling) after heating ([2]; 100 ng/ml, 100° C. for up to 2 hours): not measurably reduced
- Minimum concentration to which transfected cells were sensitive ([2]; TLR-2 transfected HEK-293): 0.1 ng/mL
- Capacity to stimulate TLR-2 after low pH treatment [2, 6]: did not affect
- Biological activity (TLR-2) after protease treatment ([2]; proteinase-K 37° C. 1 h): unaffected
- Activation of HEK-293 cells transfected with CD14 alone, or with non-corresponding TLRs [4]: unable to activate

B1: flagellin: S. typhimurium flagellin purchased from Invivogen, TLR5 standard (protein, UniProt P06179 2-495, looked up)
Flagellin: AQVINTNSLSLLTQNNLNKSQSALGTAIERLSSGLRINSAKDDAAGQAIANRFTANIKGLTQASRNANDGISIAQTTEGALNEINNNLQRVRELAVQSANSTNSQSDLDSIQAEITQRLNEIDRVSGQTQFNGVKVLAQDNTLTIQVGANDGETIDIDLKQINSQTLGLDTLNVQQKYKVSDTAATVTGYADTTIALDNSTFKASATGLGGTDQKIDGDLKFDDTTGKYYAKVTVTGGTGKDGYYEVSVDKTNGEVTLAGGATSPLTGGLPATATEDVKNVQVANADLTEAKAALTAAGVTGTASVVKMSYTDNNGKTIDGGLAVKVGDDYYSATQNKDGSISINTTKYTADDGTSKTALNKLGGADGKTEVVSIGGKTYAASKAEGHNFKAQPDLAEAAATTTENPLQKIDAALAQVDTLRSDLGAVQNRFNSAITNLGNTVNNLTSARSRIEDSDYATEVSNMSRAQILQQAGTSVLAQANQVPQNVLSLLR
- Biological activity (TLR5 signalling) after heating ([5]; 100 ng/ml, 100° C., by 1 h): almost completely abolished
- Biological activity (TLR5) after low pH treatment [5, 6]: increased
- Bioactivity (TLR5) after protease treatment ([5]; proteinase-K 37° C. 1 h): abolished
- Activation of HEK-293 cells transfected with CD14 alone, or with non-corresponding TLRs [4]: unable to activate

Source: patent US20130095094A1, “ASSAY” (University of Leicester, priority 2010, published 2013)
